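1) Cells in 96-well plates. 2) Compound, 48 h, 5 concentrations. 3) Linear interpolation between surrounding doses. 4) Unreached endpoint = highest concentration. GI50 is the concentration that inhibits growth by half.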 The source made the active and inactive calls. No stated cut-off is given here; in the data, active = GI50 up to about 1.1 µM and inactive = higher.
Tests used:
Assay in all cases: inhibition of tumour cell growth, NCI panel, 48 h
SR = system: SR
RXF 393 = system: RXF 393
RPMI-8226 = system: RPMI-8226
UACC-257 = system: UACC-257
A498 = system: A498
A549 = system: A549
M14 = system: M14
HL-60 = system: HL-60
SNB-75 = system: SNB-75
KM12 = system: KM12
SF-539 = system: SF-539
OVCAR-5 = system: OVCAR-5
CCRF-CEM = system: CCRF-CEM
OVCAR-8 = system: OVCAR-8
HCT-15 = system: HCT-15
SK-MEL-5 = system: SK-MEL-5
Malme-3M = system: Malme-3M
LOX IMVI = system: LOX IMVI
K562 = system: K562
SK-OV-3 = system: SK-OV-3

SMILES	GI50 (SR)	GI50 (RXF 393)	GI50 (RPMI-8226)	GI50 (UACC-257)	GI50 (A498)	GI50 (A549)	GI50 (M14)	GI50 (HL-60)	GI50 (SNB-75)	GI50 (KM12)	GI50 (SF-539)	GI50 (OVCAR-5)	GI50 (CCRF-CEM)	GI50 (OVCAR-8)	GI50 (HCT-15)	GI50 (SK-MEL-5)	GI50 (Malme-3M)	GI50 (LOX IMVI)	GI50 (K562)	GI50 (SK-OV-3)
Cc1noc(/N=C2\C=C(Nc3onc(C)c3C)C(=O)c3ccccc32)c1C	24.3 µM (inactive)	> 100 µM (inactive)	25.1 µM (inactive)	36.7 µM (inactive)	> 100 µM (inactive)	87.1 µM (inactive)	> 100 µM (inactive)	18.7 µM (inactive)	69.3 µM (inactive)	> 100 µM (inactive)	> 100 µM (inactive)	> 100 µM (inactive)	> 100 µM (inactive)	16 µM (inactive)	> 100 µM	15.6 µM (inactive)	> 100 µM (inactive)	11 µM (inactive)	8.81 µM (inactive)	> 100 µM (inactive)
O=[N+]([O-])/C=C/c1c(Cl)cccc1Cl	0.933 µM (active)	10.4 µM (inactive)	0.838 µM (active)	3.09 µM (inactive)	16.4 µM (inactive)	8.63 µM (inactive)	1.48 µM (inactive)	1.24 µM (inactive)	18 µM (inactive)	1.58 µM (inactive)	2.37 µM (inactive)	8.95 µM (inactive)	1.23 µM (inactive)	1.4 µM (inactive)	1.48 µM	3.13 µM (inactive)	3.05 µM (inactive)	1.37 µM (inactive)	1.68 µM (inactive)	20.8 µM (inactive)
O=C(N/N=C\c1cccc(O)c1)c1ccncc1	> 100 µM (inactive)	> 100 µM (inactive)	–	> 100 µM (inactive)	> 100 µM (inactive)	> 100 µM (inactive)	> 100 µM (inactive)	–	> 100 µM (inactive)	> 100 µM (inactive)	–	> 100 µM (inactive)	–	> 100 µM (inactive)	> 100 µM	–	> 100 µM (inactive)	> 100 µM (inactive)	> 100 µM (inactive)	–
CC(=O)OCC1OC(n2cc([N+](=O)[O-])c(=O)[nH]c2=O)C(OC(C)=O)C(OC(C)=O)C1OC(C)=O (configuration not stated)	> 100 µM (inactive)	76 µM (inactive)	> 100 µM (inactive)	> 100 µM (inactive)	> 100 µM (inactive)	> 100 µM (inactive)	> 100 µM (inactive)	> 100 µM (inactive)	54.6 µM (inactive)	> 100 µM (inactive)	–	> 100 µM (inactive)	> 100 µM (inactive)	> 100 µM (inactive)	> 100 µM	> 100 µM (inactive)	> 100 µM (inactive)	> 100 µM (inactive)	> 100 µM (inactive)	> 100 µM (inactive)
Cc1ccc(C2=Nn3c(nc4sc(-c5ccccc5)cc4c3=O)SC2)cc1	> 100 µM (inactive)	> 10 µM (inactive)	> 100 µM (inactive)	> 100 µM (inactive)	> 100 µM (inactive)	> 100 µM (inactive)	–	> 100 µM (inactive)	> 100 µM (inactive)	> 100 µM (inactive)	> 100 µM (inactive)	> 100 µM (inactive)	> 100 µM (inactive)	> 100 µM (inactive)	> 100 µM	> 100 µM (inactive)	> 100 µM (inactive)	> 100 µM (inactive)	> 100 µM (inactive)	> 100 µM (inactive)
COC(=O)C1=C(O)C(C(=O)OC)C2CC(=O)CC1C2(C)C (configuration not stated)	> 100 µM (inactive)	> 100 µM (inactive)	> 100 µM (inactive)	> 100 µM (inactive)	> 100 µM (inactive)	> 100 µM (inactive)	> 100 µM (inactive)	> 100 µM (inactive)	88.9 µM (inactive)	> 100 µM (inactive)	> 100 µM (inactive)	> 100 µM (inactive)	> 100 µM (inactive)	> 100 µM (inactive)	> 100 µM	> 100 µM (inactive)	> 100 µM (inactive)	–	> 100 µM (inactive)	> 100 µM (inactive)
c1csc(C(NC2=NCCO2)C2CC2)c1 (configuration not stated)	> 100 µM (inactive)	> 100 µM (inactive)	> 100 µM (inactive)	–	> 100 µM (inactive)	> 100 µM (inactive)	–	–	> 100 µM (inactive)	–	> 100 µM (inactive)	> 100 µM (inactive)	–	> 100 µM (inactive)	> 100 µM	> 100 µM (inactive)	–	> 100 µM (inactive)	–	> 100 µM (inactive)
CC1=CC(=O)/C(=C/NC(=S)c2ccncc2)C(=O)O1	> 100 µM (inactive)	> 100 µM (inactive)	–	> 100 µM (inactive)	> 100 µM (inactive)	> 100 µM (inactive)	> 100 µM (inactive)	> 100 µM (inactive)	61.9 µM (inactive)	> 100 µM (inactive)	> 100 µM (inactive)	> 100 µM (inactive)	> 100 µM (inactive)	> 100 µM (inactive)	> 100 µM	> 100 µM (inactive)	83.2 µM (inactive)	> 100 µM (inactive)	–	> 100 µM (inactive)
CCOC(=O)c1cc2c(ccc3cc(C(=O)OCC)[nH]c32)[nH]1	17.5 µM (inactive)	15.8 µM (inactive)	57.1 µM (inactive)	> 100 µM (inactive)	52 µM (inactive)	29.7 µM (inactive)	23 µM (inactive)	> 10 µM (inactive)	16.8 µM (inactive)	95.1 µM (inactive)	12.3 µM (inactive)	> 100 µM (inactive)	27.8 µM (inactive)	–	33.3 µM	25.8 µM (inactive)	43.3 µM (inactive)	25.6 µM (inactive)	97.1 µM (inactive)	> 100 µM (inactive)
CS(=O)(=O)N1CC(CCl)c2ccc(O)cc21 (configuration not stated)	2.84 µM (inactive)	1.4 µM (inactive)	2.03 µM (inactive)	2.44 µM (inactive)	1.83 µM (inactive)	3.19 µM (inactive)	–	1.57 µM (inactive)	2.71 µM (inactive)	2.46 µM (inactive)	2.04 µM (inactive)	3.63 µM (inactive)	1.58 µM (inactive)	2.08 µM (inactive)	3.15 µM	1.55 µM (inactive)	2.19 µM (inactive)	3.57 µM (inactive)	2.47 µM (inactive)	–
CCOC(=O)/C(=C\c1ccnc2ccccc12)P(=O)(OCC)OCC	2.24 µM (inactive)	2.62 µM (inactive)	2.67 µM (inactive)	3.73 µM (inactive)	1.77 µM (inactive)	5.31 µM (inactive)	1.93 µM (inactive)	–	3.49 µM (inactive)	4.01 µM (inactive)	1.47 µM (inactive)	2.25 µM (inactive)	0.366 µM (active)	1.81 µM (inactive)	1.47 µM	2.84 µM (inactive)	1.33 µM (inactive)	1.57 µM (inactive)	5.89 µM (inactive)	4.99 µM (inactive)
N[C@@H]1C[C@H](N)c2c(Cl)sc(Cl)c21	> 100 µM (inactive)	> 100 µM (inactive)	> 100 µM (inactive)	> 100 µM (inactive)	61.5 µM (inactive)	> 100 µM (inactive)	> 100 µM (inactive)	–	> 100 µM (inactive)	> 100 µM (inactive)	> 100 µM (inactive)	> 100 µM (inactive)	> 100 µM (inactive)	> 100 µM (inactive)	> 100 µM	> 100 µM (inactive)	–	> 100 µM (inactive)	> 100 µM (inactive)	–
COc1ccc(N2C(=O)/C(=C\c3ccccc3)SC2c2cc(OC)c(OC)c(OC)c2)cc1 (configuration not stated)	29.9 µM (inactive)	31.3 µM (inactive)	–	> 100 µM (inactive)	73.8 µM (inactive)	> 100 µM (inactive)	28.5 µM (inactive)	–	8.05 µM (inactive)	44.3 µM (inactive)	–	> 100 µM (inactive)	10.7 µM (inactive)	> 100 µM (inactive)	> 100 µM	48.4 µM (inactive)	> 100 µM (inactive)	56.9 µM (inactive)	28.5 µM (inactive)	48.9 µM (inactive)
CNC(=O)OC(COC)CN1CCN(c2ccccc2C)CC1 (configuration not stated)	> 10 µM (inactive)	> 10 µM (inactive)	> 10 µM (inactive)	> 10 µM (inactive)	> 10 µM (inactive)	> 10 µM (inactive)	> 10 µM (inactive)	> 10 µM (inactive)	> 10 µM (inactive)	> 10 µM (inactive)	> 10 µM (inactive)	–	> 10 µM (inactive)	> 10 µM (inactive)	> 10 µM	> 10 µM (inactive)	> 10 µM (inactive)	> 10 µM (inactive)	> 10 µM (inactive)	> 10 µM (inactive)
O=C1CCSSCCC(=O)NCCN1	91.2 µM (inactive)	> 100 µM (inactive)	> 100 µM (inactive)	> 100 µM (inactive)	> 100 µM (inactive)	> 100 µM (inactive)	> 100 µM (inactive)	> 100 µM (inactive)	–	> 100 µM (inactive)	> 100 µM (inactive)	> 100 µM (inactive)	> 100 µM (inactive)	> 100 µM (inactive)	> 100 µM	> 100 µM (inactive)	> 100 µM (inactive)	> 100 µM (inactive)	> 100 µM (inactive)	> 100 µM (inactive)
CC(C)(C)C1=CC(=N/N=c2\scc(-c3ccccc3)n2Cc2ccccc2)C=C(C(C)(C)C)C1=O	> 100 µM (inactive)	> 100 µM (inactive)	–	> 100 µM (inactive)	> 100 µM (inactive)	> 100 µM (inactive)	> 100 µM (inactive)	> 100 µM (inactive)	> 100 µM (inactive)	–	> 100 µM (inactive)	> 100 µM (inactive)	> 100 µM (inactive)	> 100 µM (inactive)	> 100 µM	> 100 µM (inactive)	> 100 µM (inactive)	> 100 µM (inactive)	> 100 µM (inactive)	–
